Assay results reported in patent publication US5017584A, “Antidepressant 2-(4,5-dihydro-1H-imidazolyl)-dihydro-1H-indoles, -1,2,3,4-tetrahydroquinolines and -1H-indoles, and methods of use thereas” (Sterling Drug Inc., priority 1985, dated 1991).
Values joined by “and” are separate entries in the source; they are usually repeats but may differ in a detail not shown here. Equal values may be shown once. Read-outs that look alike come from different tables or passages of the source. Blank lines part the entries; values can stand above or below the molecule they belong to.

Assays:
mice = test: In Vivo Antagonism of Clonidine-Induced Anti-Nociception (phenyl-p-quinone writhing); settings: Mus musculus; for ED50: read-out: ED50, Antagonism of Clonidine Analgesia; for responders at 3 mg/kg: 3 mg/kg s.c.
Procedure: (§1) The α2 -adrenergic antagonist activity of the compounds of the invention was determined by three screening methods, described as follows:
In Vivo Antagonism of Clonidine-Induced Anti-Nociception
The intraperitoneal administration of phenyl-p-quinone (PPQ) to mice elicits a nociceptive response which consists of abdominal writhing and extension of the hind limbs. This writhing response is prevented in mice pretreated with clonidine. […] To groups of thirty male mice for each experiment, the test compound dissolved in 0.9% sodium chloride was administered either subcutaneously or orally. […] The number of mice that writhed at least three times during the five minute observation period was counted. The number of mice that writhed was scored for each dose of antagonist, and the percentage reversal of clonidine-induced anti-nociception (analgesia) was calculated by dividing the number of animals writhing by the total number of test animals and multiplying the quotient by 100. The results are also expressed as an ED50, the effective dose (in mg./kg.) in 50% of the animals to effect antagonism of clonidine-induced analgesia.

[1] = molecular target: T1, isolated, electrically stimulated rat vas deferens (Rattus norvegicus, UniProt P22909); test: Vas Deferens Assay: antagonism of clonidine-induced inhibition of twitch height in isolated, electrically stimulated rat vas deferens; settings: for inhibition at 0.5 µM: 500 nM; for Twitch height: reversal by yohimbine
T1 construct: isolated, electrically stimulated rat vas deferens; from tissue; host or cells: isolated rat vas deferens
T1 sequence (P22909 1-465): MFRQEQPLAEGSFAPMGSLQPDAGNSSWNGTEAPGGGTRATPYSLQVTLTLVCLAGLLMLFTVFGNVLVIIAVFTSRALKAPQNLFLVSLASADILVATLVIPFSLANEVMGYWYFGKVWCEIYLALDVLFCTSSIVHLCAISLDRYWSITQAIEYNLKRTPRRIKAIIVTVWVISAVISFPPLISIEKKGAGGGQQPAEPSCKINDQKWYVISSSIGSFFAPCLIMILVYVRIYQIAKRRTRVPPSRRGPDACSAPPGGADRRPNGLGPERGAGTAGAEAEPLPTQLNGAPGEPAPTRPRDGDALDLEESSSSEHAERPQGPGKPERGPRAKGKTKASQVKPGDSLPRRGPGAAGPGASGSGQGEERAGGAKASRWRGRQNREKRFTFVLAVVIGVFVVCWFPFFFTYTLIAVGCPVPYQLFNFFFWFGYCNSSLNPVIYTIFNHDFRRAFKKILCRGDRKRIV
Procedure: as §1
Results are expressed either in terms of percent inhibition at the concentration of antagonist used or as pA2 values, determined by the Schild method; cf. Tallarida and Murray, Manual of Pharmacologic Calculations, pp. 29-32 (Springer-Verlag, 1981). The pA2 value is the negative logarithms of the concentration of antagonist required to cause a two-fold shift in the dose response curve to clonidine-induced inhibition of twitch height.

[2] = cited from earlier work
[3] = phenylquinone writing test; cited from earlier work
α2-adrenergic receptor = molecular target: T2, α2-adrenergic receptor (Rattus norvegicus, UniProt P22909); test: Tritiated Clonidine Receptor Binding Assay (inhibition of 3H-clonidine binding to rat cerebral cortex membranes); settings: for Ki: 0.4 nM 3H-clonidine, rat cerebral cortex membranes; for inhibition at 1 µM: read-out: % I, Clonidine [3H] Binding, 1000 nM
T2 construct: Homogenates of rat cerebral cortex; from tissue; host or cells: rat cerebral cortex homogenate (membranes)
T2 sequence (P22909 1-465): T1 sequence (P22909 1-465)
Procedure: as §1
The results are expressed either in terms of percent inhibition at the concentration of antagonist used or as Ki values.

[4] = sc, read-out: % A, Antagonism of Clonidine Analgesia, 1 mg/kg s.c.
[5] = sc, read-out: % A, Antagonism of Clonidine Analgesia
[6] = sc, read-out: % A, Antagonism of Clonidine Analgesia, 10 mg/kg s.c.
[7] = po, read-out: % A, Antagonism of Clonidine Analgesia, 10 mg/kg p.o.
[8] = po, read-out: % A, Antagonism of Clonidine Analgesia, 30 mg/kg p.o.
[9] = rat, 100 nM, read-out: % A, rat vas deferens
[10] = rat, read-out: % A, rat vas deferens
[11] = read-out: pA2, rat vas deferens (converted)
[12] = sc, read-out: % A, Antagonism of Clonidine Analgesia, 30 mg/kg s.c.
[13] = rat, read-out: % A, rat vas deferens, 100 nM

Compound: C[C@H]1c2ccccc2N(C)[C@@H]1C1=NCCN1 (relative stereo) [Example 1T]
- ED50 (mice; po, p.o.): 41 mg/kg
- Kb [1]: 110 nM

Compound: C[C@@H]1c2ccccc2N(C)[C@@H]1C1=NCCN1 (relative stereo) [Example 1Z]
- responders at 0.1 mg/kg (mice; sc, read-out: % A, Antagonism of Clonidine Analgesia, 0.1 mg/kg s.c.): 80%
- responders at 0.3 mg/kg (mice; sc, read-out: % A, Antagonism of Clonidine Analgesia, 0.3 mg/kg s.c.): 70%
- responders at 1 mg/kg (mice; [4]): 30%
- responders at 3 mg/kg (mice; [5]): 0%
- responders at 10 mg/kg (mice; [6]): 0%
- agonist activity, rat vas deferens ([1]; as agonist): active
- antagonist activity, rat vas deferens ([1]; as antagonist): Inac.

Compound: c1ccc2c(c1)CCN2C1=NCCN1 [1-(4,5-dihydro-1H-imidazol-2-yl)-2,3-dihydro-1H-indole]
- analeptic activity, antagonism of chloral hydrate ([2]; chloral hydrate): inactive
- analeptic activity, antagonism of pentobarbital ([2]; pentobarbital): active
- analgesic activity [3]: active

Compound: CN1c2ccc(F)cc2CC1C1=NCCN1 (centres unmarked) [Example 1A, 2-(4,5-dihydro-1H-imidazol-2-yl)-5-fluoro-2,3-dihydro-1-methyl-1H-indole]
- ED50 (mice; po, p.o.): 0.75 mg/kg
- ED50 (mice; sc, s.c.): 0.0071 mg/kg
- Kb [1]: 3.55 nM
- Ki (α2-adrenergic receptor): 0.92 nM

- % A, rat vas deferens ([1]; 100 nM, 0.1 µM): 7%
- inhibition at 0.1 µM [1, 9]: 6%
- inhibition at 0.5 µM [1, 10]: 52%
- inhibition at 0.5 µM ([1]; rat, read-out: reduced twitch height): 67%
- % I, Clonidine [3H] Binding (α2-adrenergic receptor; concentration not given): 43.5%
Compound: COCC1(C2=NCCN2)Cc2ccccc2N1C (centres unmarked) [Example 1AA]
- responders at 1 mg/kg (mice; po, read-out: % A, Antagonism of Clonidine Analgesia, 1 mg/kg p.o.): 0%
- responders at 10 mg/kg (mice; [7]): 10%
- responders at 30 mg/kg (mice; [8]): 70%
- ED50 (mice; po, p.o.): 21.8 mg/kg
- ED50 (mice; sc, s.c.): 2.6 mg/kg

- Twitch height [1]: reversed by yohimbine
Compound: CSCC1(C2=NCCN2)Cc2ccccc2N1C (centres unmarked) [Example 1AB]
- responders at 10 mg/kg (mice; [7]): 0%
- responders at 30 mg/kg (mice; [8]): 90%

- Twitch height [1]: reversed by yohimbine
Compound: CC(C)N(CC1(C2=NCCN2)Cc2ccccc2N1C)C(C)C (centres unmarked) [Example 1AC]
- responders at 10 mg/kg (mice; [7]): 50%
- responders at 30 mg/kg (mice; [8]): 50%

- fold shift of clonidine ([1]; 20 μm): 3.5 fold
Compound: CCN1CCN=C1C1C(C)c2ccccc2N1C (centres unmarked) [Example 1AD]

- fold shift of clonidine ([1]; 20 μm): 15 fold
Compound: CC1c2ccccc2N(C)C1CC1=NCCN1 (centres unmarked) [Example 1AE]

Compound: C=C1c2ccccc2N(C)C1(C)C1=NCCN1 (centres unmarked) [Example 1AF]
- fold shift of clonidine ([1]; 10 μm): 23.9 fold

- fold shift of clonidine ([1]; 10 μm): 3.9 fold
Compound: COc1c(C2=NCCN2)n(C)c2ccccc12 [Example 1AG]

Compound: CN1c2ccccc2CC1C1=NCCN1 (centres unmarked) [Example 1B]
- ED50 (mice; sc, s.c.): 12 mg/kg
- Kb [1]: 3.31 nM
- Ki (α2-adrenergic receptor): 0.46 nM

Compound: CCN1c2ccccc2CC1C1=NCCN1 (centres unmarked) [Example 1C]
- ED50 (mice; po, p.o.): 0.098 mg/kg
- ED50 (mice; sc, s.c.): 0.034 mg/kg
- Kb [1]: 1.23 nM
- Ki (α2-adrenergic receptor): 0.91 nM

- Kb [1, 11]: 110 nM
- inhibition at 1 µM (α2-adrenergic receptor): 85%
Compound: C=CCC1(C2=NCCN2)Cc2ccccc2N1C (centres unmarked) [Example 1D]
- ED50 (mice; po, p.o.): 11.1 mg/kg

- Kb [1, 11]: 11.7 nM
- Ki (α2-adrenergic receptor): 2.3 nM
Compound: c1ccc(CN2c3ccccc3CC2C2=NCCN2)cc1 (centres unmarked) [Example 1E]
- ED50 (mice; po, p.o.): 0.051 mg/kg
- ED50 (mice; sc, s.c.): 0.18 mg/kg

Compound: CN1c2ccccc2CC1(C)C1=NCCN1 (centres unmarked) [Example 1F]
- ED50 (mice; po, p.o.): 8.8 mg/kg
- Kb [1]: 28.2 nM
- Ki (α2-adrenergic receptor): 3.39 nM

- Ki (α2-adrenergic receptor): 355 nM
Compound: CN1c2ccccc2CC1CC1=NCCN1 (centres unmarked) [Example 1G]
- responders at 30 mg/kg (mice; [12]): 0%

Compound: CN1c2ccc(Cl)cc2CC1C1=NCCN1 (centres unmarked) [Example 1H]
- ED50 (mice; po, p.o.): 1.5 mg/kg
- Kb [1]: 2.75 nM

Compound: CCCN1c2ccccc2CC1C1=NCCN1 (centres unmarked) [Example 1J]
- Kb [1]: 1.74 nM

Compound: CN1c2c(Cl)cccc2CC1C1=NCCN1 (centres unmarked) [Example 1K]
- responders at 0.03 mg/kg (mice; sc, read-out: % A, Antagonism of Clonidine Analgesia, 0.03 mg/kg s.c.): 70%
- responders at 1 mg/kg (mice; [4]): 100%
- responders at 3 mg/kg (mice; [5]): 100%
- responders at 10 mg/kg (mice; [6]): 100%
- Kb [1]: 1.58 nM

Compound: CCCCN1c2ccccc2CC1C1=NCCN1 (centres unmarked) [Example 1L]
- responders at 3 mg/kg (mice; [5]): 20%
- responders at 5.5 mg/kg (mice; sc, read-out: % A, Antagonism of Clonidine Analgesia, 5.5 mg/kg s.c.): 100%
- responders at 10 mg/kg (mice; [6]): 100%
- Kb [1]: 1.58 nM

Compound: C=CCN1c2ccccc2CC1C1=NCCN1 (centres unmarked) [Example 1M]
- ED50 (mice; po, p.o.): 2.6 mg/kg
- Kb [1]: 0.851 nM

Compound: CCOCCN1c2ccccc2CC1C1=NCCN1 (centres unmarked) [Example 1N]
- ED50 (mice; po, p.o.): 26.5 mg/kg
- Kb [1]: 15.5 nM

Compound: c1ccc2c(c1)CC(C1=NCCN1)N2 (centres unmarked) [Example 1O]
- ED50 (mice; po, p.o.): 1.8 mg/kg
- Kb [1]: 6.92 nM

- Kb [1, 11]: 25.7 nM
Compound: CN1c2ccc(Cc3ccccc3)cc2CC1C1=NCCN1 (centres unmarked) [Example 1P]
- ED50 (mice; sc, s.c.): 11.3 mg/kg

- inhibition at 0.1 µM [1, 9]: 81%
- inhibition at 0.5 µM [1, 10]: 94%
Compound: c1ccc(CCN2c3ccccc3CC2C2=NCCN2)cc1 (centres unmarked) [Example 1Q]

Compound: c1ccc(N2c3ccccc3CC2C2=NCCN2)cc1 (centres unmarked) [Example 1R]
- ED50 (mice; po, p.o.): 19.8 mg/kg
- inhibition at 0.1 µM [1, 13]: 100%

Compound: CN1c2c(Cl)cc(Cl)cc2CC1C1=NCCN1 (centres unmarked) [Example 1S]
- ED50 (mice; po, p.o.): 60.1 mg/kg
- Kb [1]: 10 nM

Compound: c1ccc2c(c1)CCC(C1=NCCN1)N2 (centres unmarked) [Example 1U]
- ED50 (mice; po, p.o.): 3.8 mg/kg
- Kb [1]: 9.33 nM

Compound: CN1c2ccccc2CCC1C1=NCCN1 (centres unmarked) [Example 1V]
- ED50 (mice; po, p.o.): 2.6 mg/kg
- Kb [1]: 7.41 nM

- % A, rat vas deferens ([1]; 0.1 nM, 0.0001 µM): 3%
- % A, rat vas deferens ([1]; 1 nM, 0.001 µM): 0% and 1%
- inhibition at 0.0001 µM ([1]; rat, 0.1 nM): 2%
- inhibition at 1 µM (α2-adrenergic receptor): 44.6%
Compound: c1ccc(C2CC(C3=NCCN3)Nc3ccccc32)cc1 (centres unmarked) [Example 1W]

Compound: Cn1c(CC2=NCCN2)cc2ccccc21 [Example 1X]
- responders at 10 mg/kg (mice; [7]): 0%
- responders at 30 mg/kg (mice; [8]): 10%
- responders at 100 mg/kg (mice; po, read-out: % A, Antagonism of Clonidine Analgesia, 100 mg/kg p.o.): 50%
- responders at 10 mg/kg (mice; [6]): 50%
- responders at 30 mg/kg (mice; [12]): 60%
- responders at 100 mg/kg (mice; sc, read-out: % A, Antagonism of Clonidine Analgesia, 100 mg/kg s.c.): 50%
- Kb [1]: 33.1 nM

Compound: Cn1c(C2=NCCN2)cc2ccccc21 [Example 1Y]
- inhibition at 0.1 µM [1, 13]: 3%
- inhibition at 1 µM (α2-adrenergic receptor): 32.5%
